The text below walks through data of patent publication US12371428B2 (Exelixis, Inc., priority 2019, dated 2025).

What all share (format): cell-based
For experiment [1], the target named is Met (phospho-Met, HGF-stimulated PC-3 prostate cancer cells) (Homo sapiens (Human), UniProt P08581). Briefly: Met autophosphorylation ELISA in PC-3 cells (Example F). Particulars: cellular activity; Met autophosphorylation ELISA in PC-3 cells; read-out: c-Met IC50. The method in brief:
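IC50 values derive from a 4-parameter logistic fit of phospho-Met (panTyr) sandwich ELISA signals in PC-3 lysates, scaled between DMSO and reference-inhibitor wells. Cells, starved 3 h in serum-free medium, had 1 h compound exposure (8 doses, 0.3% DMSO) before 10 min stimulation with 100 ng/mL HGF.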
For orientation: In an ELISA, binding on a coated surface is turned into a signal by an enzyme label.

In experiment [2] the target is Mer (phospho-Mer, MERTK-transfected 293A cells) (Homo sapiens (Human), UniProt Q12866). Briefly: Mer autophosphorylation ELISA in transient transfected 293A cells (Example H). Particulars: cellular activity; Mer autophosphorylation ELISA in transient transfected 293A cells. The method in brief:
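IC50 from 4-parameter logistic fit of phospho-Mer levels, quantified by ELISA against a phospho-Mer standard in lysates of MERTK-transfected 293A cells. Cells exposed 1 h to 8-point serial dilutions, serum-free, 0.3% DMSO; controls: DMSO (100%) and reference inhibitor (0%).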

The target in experiment [3] is AXL (phospho-AXL, Gas6-stimulated A-172 glioblastoma cells) (Homo sapiens (Human), UniProt P30530). Briefly: AXL autophosphorylation ELISA in A-172 cells (Example E). As to conditions: cellular activity; AXL autophosphorylation ELISA in A-172 cells; read-out: Axl IC50. The method in brief: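 Phospho-AXL was measured by ELISA in lysates of Gas6-stimulated A-172 cells, starved 24 h in serum-free medium and exposed 1 h to an 8-point compound dilution at 0.3% DMSO.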

The target of experiment [4] is KDR (phospho-KDR, VEGF165-stimulated HUVEC cells) (Homo sapiens (Human), UniProt P35968). Briefly: KDR autophosphorylation ELISA in HUVEC cells (Example G). As to conditions: cellular activity; KDR autophosphorylation ELISA in HUVEC cells. The method in brief:
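Read-out is phospho-KDR measured by ELISA in lysates of VEGF165-stimulated (100 ng/mL, 5 min) HUVEC that were serum-starved 24 h and then pre-exposed 1 h to compound across 8 doses in 0.3% DMSO. Unstimulated lysates defined 0% and stimulated vehicle lysates 100% activity; IC50 values come from 4-parameter logistic regression.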

Broadly, the IC50 is the concentration that gives 50% inhibition.

Chain of Mer (phospho-Mer, MERTK-transfected 293A cells) (Q12866 21-999): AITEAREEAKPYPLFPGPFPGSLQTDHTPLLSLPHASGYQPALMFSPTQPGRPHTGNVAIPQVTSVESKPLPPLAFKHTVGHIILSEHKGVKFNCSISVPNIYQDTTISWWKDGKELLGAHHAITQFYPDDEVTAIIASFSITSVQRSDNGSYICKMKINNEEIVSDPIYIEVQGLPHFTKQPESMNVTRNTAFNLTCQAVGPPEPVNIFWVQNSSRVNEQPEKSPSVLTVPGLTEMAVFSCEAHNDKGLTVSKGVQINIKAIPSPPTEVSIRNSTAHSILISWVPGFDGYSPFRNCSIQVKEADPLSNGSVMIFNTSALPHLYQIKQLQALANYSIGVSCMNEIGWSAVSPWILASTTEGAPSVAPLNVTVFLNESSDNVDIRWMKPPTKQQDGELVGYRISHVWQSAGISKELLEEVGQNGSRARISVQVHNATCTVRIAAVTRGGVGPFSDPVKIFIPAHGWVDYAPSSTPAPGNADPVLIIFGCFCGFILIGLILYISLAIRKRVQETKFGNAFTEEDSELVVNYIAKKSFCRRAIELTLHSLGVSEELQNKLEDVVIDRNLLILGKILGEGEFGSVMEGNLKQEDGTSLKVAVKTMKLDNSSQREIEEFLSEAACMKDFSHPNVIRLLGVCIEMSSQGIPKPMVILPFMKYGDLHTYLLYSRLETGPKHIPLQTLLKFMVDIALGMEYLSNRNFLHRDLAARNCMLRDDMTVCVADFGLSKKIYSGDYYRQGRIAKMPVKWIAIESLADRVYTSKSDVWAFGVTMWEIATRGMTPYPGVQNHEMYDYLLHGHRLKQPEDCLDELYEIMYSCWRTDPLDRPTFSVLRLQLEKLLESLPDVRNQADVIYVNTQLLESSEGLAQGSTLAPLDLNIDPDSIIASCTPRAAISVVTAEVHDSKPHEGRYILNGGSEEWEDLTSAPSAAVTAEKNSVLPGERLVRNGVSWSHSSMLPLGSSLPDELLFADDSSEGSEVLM
Chain of KDR (phospho-KDR, VEGF165-stimulated HUVEC cells) (P35968 20-1356): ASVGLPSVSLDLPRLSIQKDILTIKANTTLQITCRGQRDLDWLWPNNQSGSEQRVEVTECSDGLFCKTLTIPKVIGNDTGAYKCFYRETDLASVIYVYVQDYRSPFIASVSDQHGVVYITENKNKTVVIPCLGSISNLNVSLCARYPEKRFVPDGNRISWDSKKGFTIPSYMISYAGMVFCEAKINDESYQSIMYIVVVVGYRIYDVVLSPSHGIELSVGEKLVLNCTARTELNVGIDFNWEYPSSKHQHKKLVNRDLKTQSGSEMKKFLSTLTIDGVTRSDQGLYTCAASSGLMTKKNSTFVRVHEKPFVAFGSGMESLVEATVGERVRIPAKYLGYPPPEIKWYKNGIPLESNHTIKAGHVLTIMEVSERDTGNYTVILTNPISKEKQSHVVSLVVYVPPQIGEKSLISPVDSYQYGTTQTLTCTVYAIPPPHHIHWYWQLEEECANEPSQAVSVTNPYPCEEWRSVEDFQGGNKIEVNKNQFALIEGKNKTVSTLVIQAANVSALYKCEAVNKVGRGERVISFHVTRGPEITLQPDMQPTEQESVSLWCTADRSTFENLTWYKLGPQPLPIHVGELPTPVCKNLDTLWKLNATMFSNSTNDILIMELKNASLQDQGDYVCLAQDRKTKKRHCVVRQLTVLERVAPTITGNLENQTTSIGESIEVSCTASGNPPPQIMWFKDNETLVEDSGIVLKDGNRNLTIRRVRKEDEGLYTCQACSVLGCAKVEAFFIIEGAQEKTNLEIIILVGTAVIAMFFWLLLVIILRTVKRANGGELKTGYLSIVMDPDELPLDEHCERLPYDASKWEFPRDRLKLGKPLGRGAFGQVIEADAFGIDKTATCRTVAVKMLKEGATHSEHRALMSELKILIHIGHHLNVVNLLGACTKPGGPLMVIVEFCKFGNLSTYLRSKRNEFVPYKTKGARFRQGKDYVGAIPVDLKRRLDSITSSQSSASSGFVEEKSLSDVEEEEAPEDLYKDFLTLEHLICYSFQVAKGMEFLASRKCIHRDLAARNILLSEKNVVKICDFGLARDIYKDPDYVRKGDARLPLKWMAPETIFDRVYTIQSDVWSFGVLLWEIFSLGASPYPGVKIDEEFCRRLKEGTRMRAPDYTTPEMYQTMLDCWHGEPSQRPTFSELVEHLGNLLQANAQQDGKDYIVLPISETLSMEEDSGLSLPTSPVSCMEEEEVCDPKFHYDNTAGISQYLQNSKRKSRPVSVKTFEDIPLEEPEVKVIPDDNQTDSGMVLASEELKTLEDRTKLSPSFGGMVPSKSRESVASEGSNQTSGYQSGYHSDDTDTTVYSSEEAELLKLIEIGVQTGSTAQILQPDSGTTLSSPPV
Chain of Met (phospho-Met, HGF-stimulated PC-3 prostate cancer cells) (P08581 25-1390): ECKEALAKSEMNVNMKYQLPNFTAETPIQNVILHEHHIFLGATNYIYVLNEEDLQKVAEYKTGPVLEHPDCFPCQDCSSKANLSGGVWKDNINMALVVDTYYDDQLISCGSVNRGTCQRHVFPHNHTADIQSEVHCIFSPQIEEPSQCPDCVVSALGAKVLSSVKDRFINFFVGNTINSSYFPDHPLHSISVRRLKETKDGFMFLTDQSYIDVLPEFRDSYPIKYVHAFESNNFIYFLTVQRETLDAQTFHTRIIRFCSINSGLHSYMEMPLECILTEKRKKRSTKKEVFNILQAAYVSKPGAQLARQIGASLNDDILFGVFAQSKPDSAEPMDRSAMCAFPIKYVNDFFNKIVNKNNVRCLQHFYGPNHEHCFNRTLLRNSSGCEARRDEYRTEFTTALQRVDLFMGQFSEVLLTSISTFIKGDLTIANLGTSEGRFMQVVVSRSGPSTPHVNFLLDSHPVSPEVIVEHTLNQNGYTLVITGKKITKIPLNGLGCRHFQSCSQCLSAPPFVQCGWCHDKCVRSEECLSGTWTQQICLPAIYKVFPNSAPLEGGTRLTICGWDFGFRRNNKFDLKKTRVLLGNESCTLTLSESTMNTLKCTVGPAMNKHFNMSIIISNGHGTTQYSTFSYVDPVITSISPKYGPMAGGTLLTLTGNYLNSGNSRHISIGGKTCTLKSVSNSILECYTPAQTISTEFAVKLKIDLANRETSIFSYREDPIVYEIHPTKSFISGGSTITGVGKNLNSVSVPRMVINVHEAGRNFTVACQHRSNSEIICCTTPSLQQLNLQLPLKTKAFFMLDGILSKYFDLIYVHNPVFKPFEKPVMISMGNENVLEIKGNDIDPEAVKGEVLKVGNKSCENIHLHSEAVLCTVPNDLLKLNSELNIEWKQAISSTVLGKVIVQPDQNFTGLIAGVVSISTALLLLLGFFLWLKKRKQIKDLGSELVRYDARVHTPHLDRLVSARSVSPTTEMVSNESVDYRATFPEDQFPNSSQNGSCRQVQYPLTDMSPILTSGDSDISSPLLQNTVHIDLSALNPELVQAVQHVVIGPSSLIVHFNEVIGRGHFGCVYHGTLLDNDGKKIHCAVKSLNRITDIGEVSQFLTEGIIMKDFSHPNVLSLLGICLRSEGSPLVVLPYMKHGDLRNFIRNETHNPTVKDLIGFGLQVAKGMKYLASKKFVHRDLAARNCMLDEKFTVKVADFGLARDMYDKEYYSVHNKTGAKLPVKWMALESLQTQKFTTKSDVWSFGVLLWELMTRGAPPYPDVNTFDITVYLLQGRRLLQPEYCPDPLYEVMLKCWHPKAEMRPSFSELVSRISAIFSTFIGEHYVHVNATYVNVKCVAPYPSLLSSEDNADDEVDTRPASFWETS
Chain of AXL (phospho-AXL, Gas6-stimulated A-172 glioblastoma cells) (P30530 26-894): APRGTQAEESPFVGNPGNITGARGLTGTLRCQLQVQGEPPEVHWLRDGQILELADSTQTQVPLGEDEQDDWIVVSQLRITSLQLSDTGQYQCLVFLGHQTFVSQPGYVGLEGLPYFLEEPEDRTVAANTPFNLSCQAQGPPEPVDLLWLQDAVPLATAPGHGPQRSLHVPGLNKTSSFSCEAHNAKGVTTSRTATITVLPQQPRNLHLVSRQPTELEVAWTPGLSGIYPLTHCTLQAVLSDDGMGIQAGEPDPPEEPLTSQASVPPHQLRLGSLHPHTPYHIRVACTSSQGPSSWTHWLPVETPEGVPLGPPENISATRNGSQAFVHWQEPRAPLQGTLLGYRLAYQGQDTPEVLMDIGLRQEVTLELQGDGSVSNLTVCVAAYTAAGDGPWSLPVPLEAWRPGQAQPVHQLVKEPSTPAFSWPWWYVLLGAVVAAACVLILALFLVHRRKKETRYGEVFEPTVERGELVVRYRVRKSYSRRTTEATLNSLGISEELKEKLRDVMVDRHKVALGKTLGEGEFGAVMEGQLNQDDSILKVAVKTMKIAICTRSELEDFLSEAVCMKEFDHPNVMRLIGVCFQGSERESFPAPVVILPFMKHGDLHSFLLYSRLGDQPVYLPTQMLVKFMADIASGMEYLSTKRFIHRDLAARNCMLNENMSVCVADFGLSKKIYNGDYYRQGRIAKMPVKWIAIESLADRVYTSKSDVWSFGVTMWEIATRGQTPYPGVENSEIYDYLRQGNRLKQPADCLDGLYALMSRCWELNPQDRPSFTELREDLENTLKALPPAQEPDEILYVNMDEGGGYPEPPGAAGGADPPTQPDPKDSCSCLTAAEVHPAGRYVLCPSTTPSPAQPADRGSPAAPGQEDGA

Take `COc1cnc2c(Oc3ccc(NC(=O)c4cnc(C)c(-c5ccc(S(C)(=O)=O)cc5)c4O)cc3F)ccnc2c1` [Compound 697, N-[3-fluoro-4-[(7-methoxy-1,5-naphthyridin-4-yl)oxy]phenyl]-4-hydroxy-6-methyl-5-(4-methylsulfonylphenyl)pyridine-3-carboxamide]: the IC50 was 100 to 300 nM in experiment [1], less than 100 nM in experiment [2], more than 300 nM in experiment [3] and more than 300 nM in experiment [4].
As to `COc1cnc2c(Oc3ccc(NC(=O)c4cnc(C)c(-c5ccc(OC)c(F)c5)c4O)cc3F)ccnc2c1` [Compound 698, N-[3-fluoro-4-[(7-methoxy-1,5-naphthyridin-4-yl)oxy]phenyl]-5-(3-fluoro-4-methoxyphenyl)-4-hydroxy-6-methylpyridine-3-carboxamide], the IC50 in experiment [1] was more than 300 nM; in experiment [2] it was less than 100 nM; in experiment [3] it was more than 300 nM; in experiment [4], less than 100 nM.
As for `COc1cnc2c(Oc3ccc(NC(=O)c4cnc(C)c(-c5ccc(OC)c(C)c5)c4O)cc3F)ccnc2c1` [Compound 699, N-[3-fluoro-4-[(7-methoxy-1,5-naphthyridin-4-yl)oxy]phenyl]-4-hydroxy-5-(4-methoxy-3-methylphenyl)-6-methylpyridine-3-carboxamide], the 50% inhibitory concentration (IC50) in experiment [1] was 100 to 300 nM; in experiment [2], less than 100 nM; in experiment [3], more than 300 nM; in experiment [4], less than 100 nM.
For `COc1ccc(-c2c(C)ncc(C(=O)Nc3ccc(Oc4ccnc5cc(OC)cnc45)c(F)c3)c2O)c(F)c1` [Compound 700, N-[3-fluoro-4-[(7-methoxy-1,5-naphthyridin-4-yl)oxy]phenyl]-5-(2-fluoro-4-methoxyphenyl)-4-hydroxy-6-methylpyridine-3-carboxamide], the IC50 in experiment [1] was less than 100 nM; in experiment [2] it was less than 100 nM; in experiment [3] it was more than 300 nM; in experiment [4] it was less than 100 nM.
Take `COc1cnc2c(Oc3ccc(NC(=O)c4cnc(C)c(-c5ccc(F)c(C)c5)c4O)cc3F)ccnc2c1` [Compound 701, N-[3-fluoro-4-[(7-methoxy-1,5-naphthyridin-4-yl)oxy]phenyl]-5-(4-fluoro-3-methylphenyl)-4-hydroxy-6-methylpyridine-3-carboxamide]: the half-maximal inhibitory concentration (IC50) in experiment [1], in experiment [2], in experiment [3] and in experiment [4] was less than 100 nM each time.
Take `COc1cc2nccc(Oc3ccc(NC(=O)c4c(C)n(CC(F)F)cc(-c5ccc(F)cc5)c4=O)cc3F)c2nc1OC` [Compound 702, 1-(2,2-difluoroethyl)-N-[4-[(6,7-dimethoxy-1,5-naphthyridin-4-yl)oxy]-3-fluorophenyl]-5-(4-fluorophenyl)-2-methyl-4-oxopyridine-3-carboxamide]: the half-maximal inhibitory concentration (IC50) is less than 100 nM in experiment [1], less than 100 nM in experiment [2], less than 100 nM in experiment [3] and 100 to 300 nM in experiment [4].
In the case of `COCCOc1cc2nccc(Oc3ccc(NC(=O)c4c(C)ccn(-c5ccc(F)cc5)c4=O)cc3F)c2nc1OC` [Compound 703, N-[3-fluoro-4-[[6-methoxy-7-(2-methoxyethoxy)-1,5-naphthyridin-4-yl]oxy]phenyl]-1-(4-fluorophenyl)-4-methyl-2-oxopyridine-3-carboxamide], the 50% inhibitory concentration (IC50) in experiment [1], in experiment [2], in experiment [3] and in experiment [4] was less than 100 nM in each case.
As for `COCCOc1cc2nccc(Oc3ccc(NC(=O)c4c(C)ccn(-c5ccc(F)cc5)c4=O)cc3)c2nc1OC` [Compound 704, 1-(4-fluorophenyl)-N-[4-[[6-methoxy-7-(2-methoxyethoxy)-1,5-naphthyridin-4-yl]oxy]phenyl]-4-methyl-2-oxopyridine-3-carboxamide], the IC50 in experiment [1], in experiment [2], in experiment [3] and in experiment [4] was less than 100 nM each time.
For the compound `COc1cc2nccc(Oc3ccc(NC(=O)c4nn(C(F)F)c(C)c(-c5ccc(F)cc5)c4=O)cc3F)c2nc1OC` [Compound 721, 1-(difluoromethyl)-N-[4-[(6,7-dimethoxy-1,5-naphthyridin-4-yl)oxy]-3-fluorophenyl]-5-(4-fluorophenyl)-6-methyl-4-oxopyridazine-3-carboxamide], the 50% inhibitory concentration (IC50) in experiment [1] was less than 100 nM; in experiment [2] it was less than 100 nM; in experiment [3], less than 100 nM; in experiment [4], 100 to 300 nM.
Turning to `COc1cc2nccc(Oc3ccc(NC(=O)c4cn(CC(F)F)c(C)c(-c5ccc(F)cc5C)c4=O)cc3)c2nc1OC` [Compound 722, 1-(2,2-difluoroethyl)-N-[4-[(6,7-dimethoxy-1,5-naphthyridin-4-yl)oxy]phenyl]-5-(4-fluoro-2-methylphenyl)-6-methyl-4-oxopyridine-3-carboxamide], the concentration for half-maximal inhibition (IC50) in experiment [1] was less than 100 nM; in experiment [2], less than 100 nM; in experiment [3], less than 100 nM; in experiment [4], more than 300 nM.
As to `COc1cnc2c(Oc3ccc(NC(=O)c4cn(CC(F)F)c(C)c(-c5ccc(F)cc5C)c4=O)cc3F)ccnc2c1` [Compound 723, 1-(2,2-difluoroethyl)-N-[3-fluoro-4-[(7-methoxy-1,5-naphthyridin-4-yl)oxy]phenyl]-5-(4-fluoro-2-methylphenyl)-6-methyl-4-oxopyridine-3-carboxamide], the IC50 is less than 100 nM in experiment [1], less than 100 nM in experiment [2], less than 100 nM in experiment [3] and more than 300 nM in experiment [4].
Regarding `COCCOc1cnc2c(Oc3ccc(NC(=O)c4c(C)nc(C)c(-c5ccc(F)cc5C)c4O)cc3)ccnc2c1` [Compound 724, 5-(4-fluoro-2-methylphenyl)-4-hydroxy-N-[4-[[7-(2-methoxyethoxy)-1,5-naphthyridin-4-yl]oxy]phenyl]-2,6-dimethylpyridine-3-carboxamide], the half-inhibitory concentration (IC50) in experiment [1], in experiment [2], in experiment [3] and in experiment [4] was less than 100 nM in each case.
For the compound `COCCOc1cc2nccc(Oc3ccc(NC(=O)c4c(C)nc(C)c(-c5ccc(F)cc5C)c4O)cc3)c2nc1OC` [Compound 725, 5-(4-fluoro-2-methylphenyl)-4-hydroxy-N-[4-[[6-methoxy-7-(2-methoxyethoxy)-1,5-naphthyridin-4-yl]oxy]phenyl]-2,6-dimethylpyridine-3-carboxamide], the IC50 in experiment [1], in experiment [2], in experiment [3] and in experiment [4] was less than 100 nM throughout.
Turning to `CNC(=O)c1cc2nccc(Oc3cc(F)c(NC(=O)c4ccc(C)n(-c5ccc(F)cc5)c4=O)cc3F)c2cc1C` [Compound 726, 4-[2,5-difluoro-4-[[1-(4-fluorophenyl)-6-methyl-2-oxopyridine-3-carbonyl]amino]phenoxy]-N,6-dimethylquinoline-7-carboxamide], the 50% inhibitory concentration (IC50) in experiment [1], in experiment [2], in experiment [3] and in experiment [4] was less than 100 nM throughout.
With `COc1cc2nccc(Oc3ccc(NC(=O)c4cn(C)c(C5CC5)c(-c5ccc(F)cc5)c4=O)cc3F)c2nc1OC` [Compound 728, 6-cyclopropyl-N-[4-[(6,7-dimethoxy-1,5-naphthyridin-4-yl)oxy]-3-fluorophenyl]-5-(4-fluorophenyl)-1-methyl-4-oxopyridine-3-carboxamide], the IC50 in experiment [1] was less than 100 nM; in experiment [2] it was less than 100 nM; in experiment [3] it was less than 100 nM; in experiment [4], 100 to 300 nM.
Take `COc1cc2nccc(Oc3ccc(NC(=O)c4cn(CC(F)F)c(C)c(-c5ccc(F)cc5C)c4=O)cc3F)c2nc1OC` [Compound 730, 1-(2,2-difluoroethyl)-N-[4-[(6,7-dimethoxy-1,5-naphthyridin-4-yl)oxy]-3-fluorophenyl]-5-(4-fluoro-2-methylphenyl)-6-methyl-4-oxopyridine-3-carboxamide]: the IC50 in experiment [1] is less than 100 nM; in experiment [2] it was less than 100 nM; in experiment [3], less than 100 nM; in experiment [4], 100 to 300 nM.
`COc1cnc2c(Oc3ccc(NC(=O)c4cn(CC(F)F)c(C)c(-c5ccc(F)cc5C)c4=O)cc3)ccnc2c1` [Compound 731, 1-(2,2-difluoroethyl)-5-(4-fluoro-2-methylphenyl)-N-[4-[(7-methoxy-1,5-naphthyridin-4-yl)oxy]phenyl]-6-methyl-4-oxopyridine-3-carboxamide]: the half-maximal inhibitory concentration (IC50) is less than 100 nM in experiment [1], less than 100 nM in experiment [2], less than 100 nM in experiment [3] and more than 300 nM in experiment [4].
In the case of `COc1cc2nccc(Oc3ccc(NC(=O)c4c(C)c(C)nn(-c5ccc(F)cc5)c4=O)cc3)c2nc1OC` [Compound 732, N-[4-[(6,7-dimethoxy-1,5-naphthyridin-4-yl)oxy]phenyl]-2-(4-fluorophenyl)-5,6-dimethyl-3-oxopyridazine-4-carboxamide], the IC50 is less than 100 nM in experiment [1], less than 100 nM in experiment [2], less than 100 nM in experiment [3] and more than 300 nM in experiment [4].
